19 compounds from patent US20250179073A1, “TRICYCLIC HETEROCYCLE COMPOUNDS AS IAP ANTAGONISTS” (Ascentage Pharma (Suzhou) Co., Ltd., priority 2022, published 2025) can be followed below.

A word on the pIC50: it is −log10 of the IC50, conventionally taken in molar units.

pIC50: −log10 of the molar value.

The subject of the first assay is MDA-MB-231 cells. The experiment in a line: Cell proliferation assay (CellTiter-Glo), MDA-MB-231. Conditions: 72 h treatment, Celltiter-Glo luminescence. The format is cell-based. Put shortly:
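Compounds tested over ten concentrations ([…]) for 72 h on EVSA-T cells in MEM/10% FBS and MDA-MB-231 cells in RPMI-1640/10% FBS, seeded at 10000/well. Luminescent CellTiter-Glo readout; IC50 fitted after normalisation to controls.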
For orientation: In ATP-based viability assays light output follows the ATP content of the culture.
Take `C[C@@H]1CN(CC(=O)N2CC(C)(C)c3c2cc(Cc2ccc(F)cc2)c2nc(N4C[C@@H](O)[C@H](O)C4)nn32)[C@@H](CN2CCOC[C@H]2C)CN1` [Compound 226, 1-(2-((3R,4R)-3,4-dihydroxypyrrolidin-1-yl)-4-(4-fluorobenzyl)-8,8-dimethyl-7,8-dihydro-6H-pyrrolo[2,3-e][1,2,4]triazolo[1,5-a]pyridin-6-yl)-2-((2R,5R)-5-methyl-2-(((R)-3-methylmorpholino)methyl)piperazin-1-yl)ethan-1-one]: the pIC50 is 6.28.

Staying with this assay, now noted: Homo sapiens, MDA-MB-231, 72 h, 72 h treatment, Celltiter-Glo luminescence.
Consider `C[C@@H]1CN(CC(=O)N2CC(C)(C)c3c2cc(Cc2ccc(F)cc2)c2nc(N4CCNC(=O)C4)nn32)[C@@H](CN2CCOC[C@H]2C)CN1` [Compound 195, 4-(4-(4-fluorobenzyl)-8,8-dimethyl-6-(2-((2R,5R)-5-methyl-2-(((R)-3-methylmorpholino)methyl)piperazin-1-yl)acetyl)-7,8-dihydro-6H-pyrrolo[2,3-e][1,2,4]triazolo[1,5-a]pyridin-2-yl)piperazin-2-one], for which the pIC50 is 6.74.

As for `C[C@@H]1CN(CC(=O)N2CC(C)(C)c3c2cc(Cc2ccc(F)cc2)c2nc(C(=O)O)nn32)[C@@H](CN2CCOC[C@H]2C)CN1` [Compound 197, 4-(4-fluorobenzyl)-8,8-dimethyl-6-(2-((2R,5R)-5-methyl-2-(((R)-3-methylmorpholino)methyl)piperazin-1-yl)acetyl)-7,8-dihydro-6H-pyrrolo[2,3-e][1,2,4]triazolo[1,5-a]pyridine-2-carboxylic acid], the negative-log IC50 (pIC50) is under 5.00.

Take `C[C@@H]1CN(CC(=O)N2CC(C)(C)c3c2cc(N2CCNc4cc(F)ccc42)c2ncnn32)[C@@H](CN2CCOC[C@H]2C)CN1` [Compound 198, 1-(4-(6-fluoro-3,4-dihydroquinoxalin-1(2H)-yl)-8,8-dimethyl-7,8-dihydro-6H-pyrrolo[2,3-e][1,2,4]triazolo[1,5-a]pyridin-6-yl)-2-((2R,5R)-5-methyl-2-(((R)-3-methylmorpholino)methyl)piperazin-1-yl)ethan-1-one]: the pIC50 is 6.00.

Turning to `C[C@@H]1CN(CC(=O)N2CC(C)(C)c3c2cc(Cc2ccc(F)cc2)c2nc(S(C)(=O)=O)nn32)[C@@H](CN2CCOC[C@H]2C)CN1` [Compound 200, 1-(4-(4-fluorobenzyl)-8,8-dimethyl-2-(methylsulfonyl)-7,8-dihydro-6H-pyrrolo[2,3-e][1,2,4]triazolo[1,5-a]pyridin-6-yl)-2-((2R,5R)-5-methyl-2-(((R)-3-methylmorpholino)methyl)piperazin-1-yl)ethan-1-one], the pIC50 was 7.15.

Regarding `C[C@@H]1CN(CC(=O)N2CC(C)(C)c3c2cc(Cc2ccc(F)cc2)c2ncnn32)[C@@H](CN2CCN(C)C(=O)[C@H]2C)CN1` [Compound 205, (R)-4-(((2R,5R)-1-(2-(4-(4-fluorobenzyl)-8,8-dimethyl-7,8-dihydro-6H-pyrrolo[2,3-e][1,2,4]triazolo[1,5-a]pyridin-6-yl)-2-oxoethyl)-5-methylpiperazin-2-yl)methyl)-1,3-dimethylpiperazin-2-one], the negative-log IC50 (pIC50) was 5.15.

Take `C[C@@H]1CN(CC(=O)N2CC(C)(C)c3c2cc(Cc2ccc(F)cc2)c2nc(N4CCOCC4=O)nn32)[C@@H](CN2CCOC[C@H]2C)CN1` [Compound 208, 4-(4-(4-fluorobenzyl)-8,8-dimethyl-6-(2-((2R,5R)-5-methyl-2-(((R)-3-methylmorpholino)methyl)piperazin-1-yl)acetyl)-7,8-dihydro-6H-pyrrolo[2,3-e][1,2,4]triazolo[1,5-a]pyridin-2-yl)morpholin-3-one]: the negative logarithm of the IC50 (pIC50) is 6.68.

In the case of `C[C@@H]1CN(CC(=O)N2CC(C)(C)c3c2cc(Cc2ccc(F)cc2)c2nc(P(C)(C)=O)nn32)[C@@H](CN2CCOC[C@H]2C)CN1` [Compound 209, 1-(2-(dimethylphosphoryl)-4-(4-fluorobenzyl)-8,8-dimethyl-7,8-dihydro-6H-pyrrolo[2,3-e][1,2,4]triazolo[1,5-a]pyridin-6-yl)-2-((2R,5R)-5-methyl-2-(((R)-3-methylmorpholino)methyl)piperazin-1-yl)ethan-1-one], the pIC50 was 5.67.

In the case of `C[C@@H]1CN(CC(=O)N2CC(C)(C)c3c2cc(Sc2ccc(F)cn2)c2ncnn32)[C@@H](CN2CCOC[C@H]2C)CN1` [Compound 211, 1-(4-((5-fluoropyridin-2-yl)thio)-8,8-dimethyl-7,8-dihydro-6H-pyrrolo[2,3-e][1,2,4]triazolo[1,5-a]pyridin-6-yl)-2-((2R,5R)-5-methyl-2-(((R)-3-methylmorpholino)methyl)piperazin-1-yl)ethan-1-one], the pIC50 was 6.82.

Turning to `C[C@@H]1CN(CC(=O)N2CC(C)(C)c3c2cc(Cc2ccc(F)cc2)c2ncnn32)[C@@H](CN2CCN(C(N)=O)C[C@H]2C)CN1` [Compound 215, (R)-4-(((2R,5R)-1-(2-(4-(4-fluorobenzyl)-8,8-dimethyl-7,8-dihydro-6H-pyrrolo[2,3-e][1,2,4]triazolo[1,5-a]pyridin-6-yl)-2-oxoethyl)-5-methylpiperazin-2-yl)methyl)-3-methylpiperazine-1-carboxamide], the pIC50 is 6.37.

On to `C[C@@H]1CN(CC(=O)N2CC(C)(C)c3c2cc(Sc2ccc(F)cc2N)c2ncnn32)[C@@H](CN2CCOC[C@H]2C)CN1` [Compound 216, 1-(4-((2-amino-4-fluorophenyl)thio)-8,8-dimethyl-7,8-dihydro-6H-pyrrolo[2,3-e][1,2,4]triazolo[1,5-a]pyridin-6-yl)-2-((2R,5R)-5-methyl-2-(((R)-3-methylmorpholino)methyl)piperazin-1-yl)ethan-1-one], for which the pIC50 was 6.55.

`C[C@@H]1CN(CC(=O)N2CC(C)(C)c3c2cc(Cc2ccc(F)cc2)c2nn(CC(N)=O)c(=O)n32)[C@@H](CN2CCOC[C@H]2C)CN1` [Compound 217, 2-(4-(4-fluorobenzyl)-8,8-dimethyl-6-(2-((2R,5R)-5-methyl-2-(((R)-3-methylmorpholino)methyl)piperazin-1-yl)acetyl)-1-oxo-7,8-dihydro-1H-pyrrolo[2,3-e][1,2,4]triazolo[4,3-a]pyridin-2(6H)-yl)acetamide]: the pIC50 was 6.46.

As for `C[C@@H]1CN(CC(=O)N2CC(C)(C)c3c2cc(Cc2ccc(F)cc2)c2nn(Cc4ncccn4)c(=O)n32)[C@@H](CN2CCOC[C@H]2C)CN1` [Compound 221, 4-(4-fluorobenzyl)-8,8-dimethyl-6-(2-((2R,5R)-5-methyl-2-(((R)-3-methylmorpholino)methyl)piperazin-1-yl)acetyl)-2-(pyrimidin-2-ylmethyl)-2,6,7,8-tetrahydro-1H-pyrrolo[2,3-e][1,2,4]triazolo[4,3-a]pyridin-1-one], the pIC50 is 6.72.

Take `C[C@@H]1CN(CC(=O)N2CC(C)(C)c3c2cc(Cc2ccc(F)cc2)c2nn(Cc4ncn(C)n4)c(=O)n32)[C@@H](CN2CCOC[C@H]2C)CN1` [Compound 232, 4-(4-fluorobenzyl)-8,8-dimethyl-2-((1-methyl-1H-1,2,4-triazol-3-yl)methyl)-6-(2-((2R,5R)-5-methyl-2-(((R)-3-methylmorpholino)methyl)piperazin-1-yl)acetyl)-2,6,7,8-tetrahydro-1H-pyrrolo[2,3-e][1,2,4]triazolo[4,3-a]pyridin-1-one]: the negative-log IC50 (pIC50) is 6.48.

For the compound `C[C@@H]1CN(CC(=O)N2CC(C)(C)c3c2cc(Cc2ccc(F)cc2)c2nn(C[C@@H]4COCCO4)c(=O)n32)[C@@H](CN2CCOC[C@H]2C)CN1` [Compound 233, 2-(((R)-1,4-dioxan-2-yl)methyl)-4-(4-fluorobenzyl)-8,8-di methyl-6-(2-((2R,5R)-5-methyl-2-(((R)-3-methylmorpholino)methyl)piperazin-1-yl)acetyl)-2,6,7,8-tetrahydro-1H-pyrrolo[2,3-e][1,2,4]triazolo[4,3-a]pyridin-1-one], the pIC50 was 6.59.

Regarding `C[C@@H]1CN(CC(=O)N2CC(C)(C)c3c2cc(Cc2ccc(F)cc2)c2nc(N4CCNC4=O)nn32)[C@@H](CN2CCOC[C@H]2C)CN1` [Compound 248, 1-(4-(4-fluorobenzyl)-8,8-dimethyl-6-(2-((2R,5R)-5-methyl-2-(((R)-3-methylmorpholino)methyl)piperazin-1-yl)acetyl)-7,8-dihydro-6H-pyrrolo[2,3-e][1,2,4]triazolo[1,5-a]pyridin-2-yl)imidazolidin-2-one], the pIC50 was 7.33.

Take `C[C@@H]1CN(CC(=O)N2CC(C)(C)c3c2cc(Cc2ccc(F)cc2)c2nn(C4CNC4)c(=O)n32)[C@@H](CN2CCOC[C@H]2C)CN1` [Compound 249, 2-(azetidin-3-yl)-4-(4-fluorobenzyl)-8,8-dimethyl-6-(2-((2R,5R)-5-methyl-2-(((R)-3-methylmorpholino)methyl)piperazin-1-yl)acetyl)-2,6,7,8-tetrahydro-1H-pyrrolo[2,3-e][1,2,4]triazolo[4,3-a]pyridin-1-one]: the pIC50 is 7.39.

In the case of `C[C@@H]1CN(CC(=O)N2CC(C)(C)c3c2cc(Cc2ccc(F)cc2)c2nn(Cc4cccnn4)c(=O)n32)[C@@H](CN2CCOC[C@H]2C)CN1` [Compound 253, 4-(4-fluorobenzyl)-8,8-dimethyl-6-(2-((2R,5R)-5-methyl-2-(((R)-3-methylmorpholino)methyl)piperazin-1-yl)acetyl)-2-(pyridazin-3-ylmethyl)-2,6,7,8-tetrahydro-1H-pyrrolo[2,3-e][1,2,4]triazolo[4,3-a]pyridin-1-one], the negative-log IC50 (pIC50) is 6.64.

Take `CNC(=O)c1nc2c(Cc3ccc(F)cc3)cc3c(n2n1)C(C)(C)CN3C(=O)CN1C[C@@H](C)NC[C@@H]1CN1CCOC[C@H]1C` [Compound 255, 4-(4-fluorobenzyl)-N,8,8-trimethyl-6-(2-((2R,5R)-5-methyl-2-(((R)-3-methylmorpholino)methyl)piperazin-1-yl)acetyl)-7,8-dihydro-6H-pyrrolo[2,3-e][1,2,4]triazolo[1,5-a]pyridine-2-carboxamide]: the pIC50 is 6.24.
